Key:
[1] = system: nu/nu mice; experiment: nude mouse hair studies, topical application; type: in vivo
Excerpt: This example illustrates nude mouse hair studies involving topical application of CT1501R. Six to eight week old, female, nu/nu mice from Charles River Laboratories were housed at Biosupport Research Support Services (Seattle, Wash.) in autoclaved micro isolator units with hyperchlorinated autoclaved water, irradiated rodent chow and kept under a laminar flow hood. Caging was changed weekly, and water was changed twice weekly. The mice were acclimated for 5 days before beginning each study.
The first topical formulation was prepared by adding CT1501R to a heated hydrophilic ointment (USP) at a 1% concentration, and allowed to solidify.
Nude mice were painted twice daily for 16 days with the first topical formulation of CT1501R on the left flank and another compound in the same base on the right flank with sterile applicators. Mice were handled under the laminar flow hood with applicator wearing face mask and sterile gloves. After 16 days, one mouse was sacrificed by cervical dislocation and skin biopsies were taken of the treated areas of the shoulder/flank and from the non-treated area of the dorsal pelvis (rump). Specimens were placed in 10% buffered formalin solution. Biopsies were sent to a veterinary dermopathologist for histopathology. Six weeks following treatment, a second mouse was euthanatized and biopsied the same as the first. Samples were sent for histopathology.
In a second experiment, topical application of CT1501R was performed along with a commercial topical minoxidil preparation (Rogaine®, Upjohn) that is approved for a hair growth indication. Five to six week old, female, nu/nu mice from Bantin and Kingman Universal were housed at Biosupport Research Support Services (Seattle, Wash.) in autoclaved micro isolator units with hyper chlorinated autoclaved water, irradiated rodent chow and kept under a laminar flow hood. Caging was changed weekly, and water was changed twice weekly. Mice were acclimated for 7 days before beginning study.
CT1501R, and two other compounds were prepared in a topical formulation of 60% ETOH, 10% water and 30% PEG along with vehicle only. Minoxidil was purchased as the commercial preparation Rogaine® from a local pharmacy. Rogaine® is sold in the same formulation base. Mice were identified by unique tail markings specific for each test article. Two mice per group were treated with CT1501R and another compound. One mouse was treated with each of vehicle and minoxidil. The mice were handled under the laminar flow hood with the applicator wearing face mask and sterile gloves. Each mouse was treated twice daily with a separate sterile applicator to avoid contamination of the solutions or the mice. All mice were applied a strip of appropriate test article along the center line of the back from the base of the skull to the base of the tail, approximately 1.5 cm wide. After 34 days all mice were euthanatized by overdose of halothane anesthesia. Skin biopsies were taken from each of the 7 mice over the nape of the neck between the scapulas (approximate size was 1×1.5 cm). All specimens were blotted on gauze to remove blood and fluids, affixed to a cut piece of wooden tongue depressor, and placed specimen side down in separately marked containers with 10% buffered formalin. Specimens were shipped to a veterinary dermatopathologist for qualitative histopathological determinations.

[2] = system: smooth muscle cell; experiment: smooth muscle proliferation stimulated by PDGF and IL-1; type: cell-based
Excerpt: CT1501R and PTX were separately added to the cells two hours prior to activation with PDGF and IL-1.

[3] = system: TNF-α; experiment: mouse plasma TNF-α ELISA after endotoxin; type: in vivo; details: for Plasma TNF: LPS + CT-1501R
Method: For ELISA measurements of cytokine levels in plasma, blood was collected by retro-orbital or cardiac puncture of anesthetized mice, immediately centrifuged and the EDTA plasma stored at -70° C. Particulate free plasma was thawed on ice and cytokine levels determined utilizing commercial ELISA assays with normal mouse plasma used to generate standard curves. Murine tumor necrosis factor-α and interleukin-1αkits were purchased from Genzyme (Cambridge, Mass.) and Endogen (Boston, Mass.), respectively. Each data point was an average of two ELISA measurements made from EDTA […] pooled from three mice. The data summarized in Table 3 were compiled from two independent experiments; data from Table 4 and 5 were from single experiments of three mice per data point.
Levels of TNF-α, IL-1α and IL-6 were measured in the plasma of mice as a function of time following treatment with S. abortus endotoxin. […] TNF-α levels peaked within 1 hour of treatment of endotoxin (Table 4 and FIG. 6). Treatment of the mice with CT1501R decreased the levels of TNF-α in the EDTA plasma of endotoxin treated mice at all time points measured. In particular, peak levels of TNF-α at 0.5 and 1 hour post endotoxin were decreased 2.5 and 2.6 fold respectively in the CT1501R treated mice.

[4] = system: U937 cells; experiment: adhesion of IL-1α activated U937 cells to HUVEC; type: cell-based, human; details: 250 μM pre-treatment of U937 cells, FIG. 22
Method: Murine peritoneal exudate cell macrophages (PEC) were isolated by perfusion of mouse peritoneum and plated into 96-well trays at 5×10^5 cells per well. Cells were stimulated with 5 μg/ml Salmonella abortus equi -derived endotoxin (LPS; Sigma Chemical Co., L-1887) or […] IL-1α (Genzyme; Cambridge, Mass.) with or without the addition of CT1501R added to the cultures one hour prior to addition of the stimulus. At various times thereafter, supernatants were removed and levels of either TNF-α or IL-1α were assayed using commercial 96-well microtiter immunoassay kits (Genzyme; TNF; Endogen, Boston, Mass.; IL-1α) according to manufacturer's specifications. For the adhesion studies, early passage human umbilical vein endothelial cells (HUVEC) were obtained. from commercial suppliers (Clonetics, San Diego, Calif. or Cell Systems, Seattle, Wash.) and cultured in defined, Hepes buffered, serum free medium (Cell Systems, cat 301-180) supplemented with acidic FGF (Cell Systems cat 401-111). 4000 cells were plated into each well of a 96-well microtiter plate and allowed to incubate for 72 hrs at 37° C. […] After addition of […] Hanks Balanced Salt Solution (HBSS), the microtiter plate was then analyzed on a Millipore Cytofluor fluorescent plate reader (excitation 488 nm; emission 525 nm). […]

[5] = first experiment, 1% in hydrophilic ointment, twice daily 16 days

How did the “hair follicles, histopathology” value [1, 5] turn out when `C[C@@H](O)CCCCn1c(=O)c2c(ncn2C)n(C)c1=O` [CT1501R, (R)-1-(5-hydroxyhexyl)-3,7-dimethylxanthine] was run?
The value was “significantly more normal appearing hair follicles than the non treated sections”.

What about the “hair shafts, histopathology” value [1, 5] of the same compound?
The value was “Numerous hair shafts were seen exiting the follicles in the treated sections”.

What about the “hair growth promotion compared with minoxidil” value ([1]; second experiment) of the same compound?
The value was “at least as good at promoting hair growth in this model as minoxidil”.

What about the “visual inspection of hair” value ([1]; second experiment, group of CT1501R, minoxidil and control) of the same compound?
Its value is “most "hairy"”.

What about the “hair follicles, subjective histopathological examination” value ([1]; second experiment, topical twice daily, 34 days) of the same compound?
Its value is “greatest concentration of hair folicles”.

And the “activity compared with PTX, smooth muscle cell proliferation” value ([2]; PDGF and IL-1, FIG. 4)?
The value was “more active than PTX”.

And the “inhibition of smooth muscle cell proliferation” value ([2]; PDGF and IL-1, drug added two hours prior, FIG. 4)?
The value was “inhibited smooth muscle cell proliferation at the higher doses tested”.

And the “fold decrease of plasma TNF-α” value ([3]; 0.5 hour post endotoxin)?
Its value is 2.5 fold.

And the “fold decrease of plasma TNF-α” value ([3]; 1 hour post endotoxin)?
Its value is 2.6 fold.

What about the “Plasma TNF” value ([3]; 0 hours post LPS) of the same compound?
The value was 0 pg/mL.

And the “Plasma TNF” value ([3]; 0.17 hours post LPS)?
Its value is 6 pg/mL.

What about the “Plasma TNF” value ([3]; 0.5 hours post LPS) of the same compound?
Its value is 390 pg/mL.

And the “Plasma TNF” value ([3]; 1 hour post LPS)?
The value was 1728 pg/mL.

What about the “Plasma TNF” value ([3]; 2 hours post LPS) of the same compound?
Its value is 940 pg/mL.

What about the “Plasma TNF” value ([3]; 4 hours post LPS) of the same compound?
The value was 400 pg/mL.

And the “Plasma TNF” value ([3]; 6 hours post LPS)?
Its value is 350 pg/mL.

And the “IL-1α mediated increase in adhesion of U937 cells to HUVEC” value [4]?
Its value is “effectively blocked the IL-1α mediated increase in adhesion to HUVEC to near background levels”.

— patent publication US5567704A, “R-enatiomerically pure hydroxylated xanthine compounds to treat baldness” (priority 1995, dated 1996)
